Results taken from patent US6956139B2, “(1R, 2S, 5R)-3-1-menthoxyalkan-1-OL cooling sensate” (Takasago International Corporation, priority 2000, dated 2005).

Tested on: evaluators
Assay: Six evaluators swished a 150 ppm solution of each compound; flavor quality and cooling reported at intervals after spitting out
Assay type: in vivo, human
Conditions: for quality of the flavor and cooling characteristics, 30 Minutes: 10 ml of 150 ppm solution swished 15 seconds and spit out, 30 minutes after spitting out; for cooling lasting (duration) / Peak cool at (time): 10 ml of 150 ppm solution swished 15 seconds, time after spitting out
Method: The enantiomeric compounds of the present invention, Examples 1 through 3 (E1, E2 and E3), were tested against the prior art racemic mixture of 2-(5-methyl-2-(methylethyl)-cyclohexyloxy)-ethan-1-ol (C1). Six evaluators swished 10 ml of a 150 ppm solution of each compound for 15 seconds and spit out. The quality of the flavor and cooling characteristics were reported at various intervals after spitting out.

CC1CCC(C(C)C)C(OCCO)C1 (centres unmarked) [Example C1, (d,l)-2-(5′-methyl-2′-(methylethyl)cyclohexyloxy)ethan-1-ol, reference compound]
quality of the flavor and cooling characteristics, 30 Minutes: no cooling
cooling lasting (duration): 10 to 15 min

CC(C)[C@@H]1CC[C@@H](C)C[C@H]1OCCO [Example E1, [1′R,2′S,5′R]-2-(5′-methyl-2′-(methylethyl)cyclohexyloxy)ethan-1-ol]
quality of the flavor and cooling characteristics, 30 Minutes: cooling
Peak cool at (time): 15 min

CC(C)[C@@H]1CC[C@@H](C)C[C@H]1OCCCO [Example E2, [1′R,2′S,5′R]-3-(5′-methyl-2′-(methylethyl)cyclohexyloxy)propan-1-ol]
Peak cool at (time): 10 to 13 min
cooling lasting (duration): cooling 30+ min.

CC(C)[C@@H]1CC[C@@H](C)C[C@H]1OCCCCO [Example E3, [1′R,2′S,5′R]-4-(5′-methyl-2′-(methylethyl)cyclohexyloxy)butan-1-ol]
quality of the flavor and cooling characteristics, 30 Minutes: cooling
Peak cool at (time): 7 min
